From ChEMBL document CHEMBL5576086, “Macrocarpal B blocks the binding between the phospholipase A2 receptor and its antibodies” (Bioorg Med Chem, 2024) come the findings set out here.

What is called inhibition is how much of the control response was suppressed. Broadly, the Kd is the concentration at which binding is half-saturated.

Assay [1] is filed under the species Homo sapiens. Kind of assay: Inhibition of Anti-PLA2R IgG interaction with human recombinant PLA2 receptor at 10 uM incubated for 1 hr by ELISA analysis relative to control. For orientation: ELISA stands for enzyme-linked immunosorbent assay.
The species entered for assay [2] is Homo sapiens. Kind of assay: Inhibition of Anti-PLA2R IgG interaction with human recombinant PLA2 receptor at 10 uM by SPR analysis relative to control. (In general: Surface plasmon resonance follows binding to a sensor surface in real time, without labels.)
The species entered for assay [3] is Homo sapiens. Kind of assay: Inhibition of Anti-PLA2R IgG interaction with human recombinant PLA2 receptor by SPR analysis. As to conditions: dose 50-80 nM.
The species named for assay [4] is Homo sapiens. Kind of assay: Inhibition of Anti-PLA2R IgG interaction with human recombinant PLA2 receptor assessed as maximum inhibition at 0 to 5 uM by SPR analysis relative to control. As to conditions: dose 0-5 µM.
Assay [5] addresses Secretory phospholipase A2 receptor (Homo sapiens, UniProt Q13018). As to the kind of experiment: Binding affinity to human recombinant PLA2 receptor assessed as dissociation constant by SPR analysis.
Assay [6] is filed under the species Homo sapiens. As to the kind of experiment: Binding affinity to human Anti-PLA2R IgG at 1 to 500 uM by SPR analysis. As to conditions: dose 1-500 µM.
The subject of assay [7] is Podocyte. Kind of assay: Reversal of membranous nephropathy-patient derived 5% plasma induced cytotoxicity against human Podocytes assessed as cell viability recovery by measuring optical density at 0.2 uM measured at 48 hrs by CCK-8 assay (reference value: 0.4 +/- 0.1). The format is functional. In general terms: Formazan colour is commonly taken as a measure of viable cells.

The test system of assay [8] is Podocyte. As to the kind of experiment: Reversal of membranous nephropathy-patient derived 5% plasma induced cytotoxicity against human Podocytes assessed as cell viability recovery by measuring optical density at 1 uM measured at 48 hrs by CCK-8 assay (reference value: 0.4 +/- 0.1). It is filed as functional.
The subject of assay [9] is Podocyte. Kind of assay: Reversal of membranous nephropathy-patient derived 5% plasma induced cytotoxicity against human Podocytes assessed as cell viability recovery by measuring optical density at 5 uM measured at 48 hrs by CCK-8 assay (reference value: 0.4 +/- 0.1). The format is functional.
The subject of assay [10] is Podocyte. Kind of assay: Reversal of membranous nephropathy-patient derived 5% plasma induced cytotoxicity against human Podocytes assessed as cell viability recovery by measuring optical density at 0.2 uM measured at 72 hrs by CCK-8 assay (reference value: 0.3 +/- 0.05). It is filed as functional.
Assay [11] deals with Podocyte. Kind of assay: Reversal of membranous nephropathy-patient derived 5% plasma induced cytotoxicity against human Podocytes assessed as cell viability recovery by measuring optical density at 1 uM measured at 72 hrs by CCK-8 assay (reference value: 0.3 +/- 0.05). It is filed as functional.
The test system of assay [12] is Podocyte. Kind of assay: Reversal of membranous nephropathy-patient derived 5% plasma induced cytotoxicity against human Podocytes assessed as cell viability recovery by measuring optical density at 5 uM measured at 72 hrs by CCK-8 assay (reference value: 0.3 +/- 0.05). It is filed as functional.
Assay [13] has as its system Podocyte. As to the kind of experiment: Recovery of Podocin-expression in membranous nephropathy-patient derived 5% plasma induced human Podocytes by Western blot analysis. It is filed as functional, cell-based. The note with it: dose 0.2-5 µM.
Assay [14] has as its system Podocyte. Kind of assay: Reversal of membranous nephropathy-patient derived 5% plasma induced inhibition of cell migration in human Podocytes assessed as restoration of number of migrating cells at 1 uM measured upto 24 hrs by wound healing assay (reference value: 25.3 +/- 5.1). The format is functional.
The subject of the next assay is Podocytes. Kind of assay: Inhibition of Anti-PLA2R IgG binding to human recombinant PLA2 receptor in human Podocytes assessed as mean fluorescence intensity at 5 uM by immunofluorescence analysis (reference value: 8.1 +/- 1.5). The format is cell-based.

The structures appear in SMILES notation. Calls of active or inactive are those of the source. The calls are words filed in the database; no cut-off is given here. Starred links: 1 amine or outer side, 2 acyl side, 3 side chain; linkers in the order of their positions; H or OH if unused. Positions of bridges follow the written chain, without caps; N, C: chain ends. Non-standard residues stand in square brackets, D forms with d. Residues, ends and D or L forms follow the SMILES beside them. Chains are numbered I, II in the order given. Actinocin(9to1) = Cc1c2oc3c(C)ccc(C(=O)[*:1])c3nc-2c(C(=O)[*:2])c(N)c1=O; NMeV = CN[C@H](C(=O)O)C(C)C; Sar = CNCC(=O)O

Secretory phospholipase A2 receptor, sequence (Q13018 whole entry): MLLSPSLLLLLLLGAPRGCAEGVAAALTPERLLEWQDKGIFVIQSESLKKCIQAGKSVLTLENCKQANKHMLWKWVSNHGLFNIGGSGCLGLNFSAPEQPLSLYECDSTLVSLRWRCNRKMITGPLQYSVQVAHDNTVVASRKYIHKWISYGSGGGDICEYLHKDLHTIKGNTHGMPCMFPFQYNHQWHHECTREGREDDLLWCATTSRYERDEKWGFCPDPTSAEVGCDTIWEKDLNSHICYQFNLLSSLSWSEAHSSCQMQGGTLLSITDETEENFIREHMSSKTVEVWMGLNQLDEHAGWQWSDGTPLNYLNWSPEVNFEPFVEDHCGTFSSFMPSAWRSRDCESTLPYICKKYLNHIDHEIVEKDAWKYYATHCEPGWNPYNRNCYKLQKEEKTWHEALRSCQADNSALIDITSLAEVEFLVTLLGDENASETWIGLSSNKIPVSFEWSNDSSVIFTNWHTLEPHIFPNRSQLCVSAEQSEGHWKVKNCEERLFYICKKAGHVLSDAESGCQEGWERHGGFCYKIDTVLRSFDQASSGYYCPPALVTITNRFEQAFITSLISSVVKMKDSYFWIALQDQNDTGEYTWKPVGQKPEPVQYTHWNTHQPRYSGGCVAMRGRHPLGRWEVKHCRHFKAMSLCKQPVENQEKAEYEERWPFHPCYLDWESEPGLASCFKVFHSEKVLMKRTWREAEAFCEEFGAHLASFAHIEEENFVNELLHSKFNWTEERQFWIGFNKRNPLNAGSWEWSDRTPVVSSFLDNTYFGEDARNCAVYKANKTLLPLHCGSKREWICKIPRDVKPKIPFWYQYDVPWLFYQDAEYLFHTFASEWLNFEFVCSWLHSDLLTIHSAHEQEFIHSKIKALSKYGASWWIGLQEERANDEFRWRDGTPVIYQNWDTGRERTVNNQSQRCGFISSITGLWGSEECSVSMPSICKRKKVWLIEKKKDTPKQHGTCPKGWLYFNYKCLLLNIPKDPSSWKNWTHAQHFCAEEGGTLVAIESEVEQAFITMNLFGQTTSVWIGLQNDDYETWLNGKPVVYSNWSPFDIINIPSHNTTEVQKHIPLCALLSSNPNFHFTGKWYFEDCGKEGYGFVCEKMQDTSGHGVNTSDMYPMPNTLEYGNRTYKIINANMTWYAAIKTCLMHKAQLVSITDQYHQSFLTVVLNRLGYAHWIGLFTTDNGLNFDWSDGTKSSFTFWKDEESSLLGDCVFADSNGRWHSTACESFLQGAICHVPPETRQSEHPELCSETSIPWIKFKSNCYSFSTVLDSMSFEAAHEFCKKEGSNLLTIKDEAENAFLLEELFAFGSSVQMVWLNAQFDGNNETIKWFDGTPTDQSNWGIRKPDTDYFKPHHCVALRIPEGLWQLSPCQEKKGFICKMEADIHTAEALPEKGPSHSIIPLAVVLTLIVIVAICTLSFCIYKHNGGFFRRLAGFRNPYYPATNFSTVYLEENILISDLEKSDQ

As to `CC(=O)O[C@H]1C[C@@H]2C(COC(=O)CC(C)C)=CO[C@@H](OC(=O)CC(C)C)[C@@H]2[C@@]12CO2`, the inhibition in the assay filed under Homo sapiens [1] was 26.4%.

For `CC(C)C[C@H](c1c(O)c(C=O)c(O)c(C=O)c1O)[C@@]1(C)CC[C@@H]2[C@@H]1[C@H]1[C@@H](CC[C@@]2(C)O)C1(C)C` [MACROCARPAL B], the inhibition was 41.6% in the assay listed under Homo sapiens [1], 19% in the assay filed under Homo sapiens [2] and “Dose-Dependent Effect” in the assay listed under Homo sapiens [3]. In addition, the Imax in the assay filed under Homo sapiens [4] was 30%. Further, the Kd in assay [5] was 1470 nM. Besides, the result in the assay filed under Homo sapiens [6] was inactive. Also, the OD with Podocyte [7] is on record as 0.6; in the assay with Podocyte [8], 0.7; in the assay on Podocyte [9], 0.8; in the assay on Podocyte [10] it was 0.5; in the assay with Podocyte [11], 0.6; in the assay on Podocyte [12] it was 0.6. The results for the Activity entry with Podocyte [13] and in the assay on Podocyte [14] were “Dose-Dependent Effect” and 50.7, respectively. The Flu intensity in the assay with Podocytes was found to be 2.1.

Take `COc1cc(O)c2c(=O)c3cc(CC=C(C)C)c(O)c(O)c3oc2c1CC=C(C)C`: the inhibition in the assay filed under Homo sapiens [1] came out at 51.8%; in the assay filed under Homo sapiens [2], 10.7%.

With `CC(C)=CCc1cc2c(=O)c3c(O)c(CC=C(C)C)c(O)c(CC=C(C)C)c3oc2c(O)c1O`, in the assay listed under Homo sapiens [1], the inhibition stood at 55.4%.

Consider `CO[C@H]1C[C@H](O[C@H]2[C@H](C)O[C@@H](O[C@@H]3/C(C)=C/C[C@@H]4C[C@@H](C[C@]5(C=C[C@H](C)[C@@H](C6CCCCC6)O5)O4)OC(=O)[C@@H]4C=C(C)[C@@H](O)[C@H]5OC/C(=C\C=C\[C@@H]3C)[C@]54O)C[C@@H]2OC)O[C@@H](C)[C@@H]1O`, for which the inhibition is 27.1% in the assay filed under Homo sapiens [1] and 12% in the assay listed under Homo sapiens [2].

In the case of `CC(C)=CCc1c(O)c(CC=C(C)C)c2oc3c(O)ccc(O)c3c(=O)c2c1O`, the figures for the inhibition in the assay listed under Homo sapiens [1] and in the assay filed under Homo sapiens [2] were 49.4% and 12.2%, respectively.

Turning to `CC(C)=CCC[C@]1(C)C=Cc2c(O)c3c(c(CC=C(C)C)c2O1)O[C@]12C(=C[C@@H]4C[C@H]1C(C)(C)O[C@@]2(C/C=C(/C)C(=O)O)C4=O)C3=O`, the inhibition is 73.1% in the assay listed under Homo sapiens [1] and 13.4% in the assay listed under Homo sapiens [2].

Consider `CC(=O)C[C@]1(O)C(=O)C2=C(OC[C@@H]2C)c2ccc3c(C)cccc3c21`, for which the inhibition in the assay listed under Homo sapiens [1] was determined as 28.7%; in the assay listed under Homo sapiens [2] it was 10.1%.

As for `CC(C)C[C@@H](c1c(O)c(C=O)c(O)c(C=O)c1O)[C@@H]1CC[C@@](C)(O)[C@@H]2[C@@H]3[C@H](CC[C@]21C)C3(C)C`, the inhibition in the assay listed under Homo sapiens [1] is 34.3%; in the assay filed under Homo sapiens [2] it was 12.6%.

Take `CC(C)C[C@@H](c1c(O)c(C=O)c(O)c(C=O)c1O)[C@@]1(C)CC[C@H]2C1=C[C@H](C(C)(C)O)CC[C@H]2C`: the inhibition in the assay filed under Homo sapiens [1] was 21.2%; in the assay filed under Homo sapiens [2] it was 11.3%.

With `CC1(C)CC[C@]2(C(=O)O)CC[C@]3(COC(=O)/C=C/c4ccc(O)c(O)c4)C(=CC[C@@H]4[C@@]5(C)CC[C@H](O)C(C)(C)[C@@H]5CC[C@]43C)[C@@H]2C1`, in the assay filed under Homo sapiens [1], the inhibition was 20.5%.

Consider `CCCCCc1cc(O)c(C/C=C(\C)CCC=C(C)C)c(O)c1`, for which the inhibition in the assay listed under Homo sapiens [1] was 32.9%; in the assay filed under Homo sapiens [2], 9.7%.

Consider `CC(=O)O[C@H]1C[C@]2(O)C(COC(=O)C(OC(=O)CC(C)C)C(C)C)=CO[C@@H](OC(=O)CC(C)C)[C@@H]2[C@@]12CO2` (some centres undefined), for which the inhibition in the assay filed under Homo sapiens [1] came out at 30.2%; in the assay filed under Homo sapiens [2] it was 7.7%.

Consider `Cc1c2oc3c(C)ccc(C(=O)N[C@@H]4C(=O)N[C@H](C(C)C)C(=O)N5CCC[C@H]5C(=O)N(C)CC(=O)N(C)[C@@H](C(C)C)C(=O)O[C@@H]4C)c3nc-2c(C(=O)N[C@@H]2C(=O)N[C@H](C(C)C)C(=O)N3CCC[C@H]3C(=O)N(C)CC(=O)N(C)[C@@H](C(C)C)C(=O)O[C@@H]2C)c(N)c1=O` (I: T[dV]P[Sar][NMeV] / II: T[dV]P[Sar][NMeV]; ester I:1-I:C, II:1-II:C; linker I:N-II:N via Actinocin(9to1)), for which the inhibition in the assay filed under Homo sapiens [1] came out at 79.3%.

On to `COc1c(O)c2c(=O)cc(OC)c3c4c(OC)cc(O)c5c(=O)c(OC)c6c(c(c1[C@H](C(C)=O)[C@](C)(O)C6)c23)c54`, for which the inhibition in the assay listed under Homo sapiens [1] was found to be 74.3%; in the assay listed under Homo sapiens [2], 11.9%.
